The text below walks through data of patent publication US9688662B2, “N-(2,3-dihydro-1H-pyrrolo[2,3-b]pyridin-5-yl)-4-quinazolinamine and N-(2,3-dihydro-1H-indol-5-yl)-4-quinazolinamine derivatives as perk inhibitors” (Janssen Pharmaceutica NV, priority 2013, dated 2017).

Data set [1] addresses T1, PERK (Homo sapiens, UniProt Q9NZJ5).
T1 sequence (Q9NZJ5 30-1116): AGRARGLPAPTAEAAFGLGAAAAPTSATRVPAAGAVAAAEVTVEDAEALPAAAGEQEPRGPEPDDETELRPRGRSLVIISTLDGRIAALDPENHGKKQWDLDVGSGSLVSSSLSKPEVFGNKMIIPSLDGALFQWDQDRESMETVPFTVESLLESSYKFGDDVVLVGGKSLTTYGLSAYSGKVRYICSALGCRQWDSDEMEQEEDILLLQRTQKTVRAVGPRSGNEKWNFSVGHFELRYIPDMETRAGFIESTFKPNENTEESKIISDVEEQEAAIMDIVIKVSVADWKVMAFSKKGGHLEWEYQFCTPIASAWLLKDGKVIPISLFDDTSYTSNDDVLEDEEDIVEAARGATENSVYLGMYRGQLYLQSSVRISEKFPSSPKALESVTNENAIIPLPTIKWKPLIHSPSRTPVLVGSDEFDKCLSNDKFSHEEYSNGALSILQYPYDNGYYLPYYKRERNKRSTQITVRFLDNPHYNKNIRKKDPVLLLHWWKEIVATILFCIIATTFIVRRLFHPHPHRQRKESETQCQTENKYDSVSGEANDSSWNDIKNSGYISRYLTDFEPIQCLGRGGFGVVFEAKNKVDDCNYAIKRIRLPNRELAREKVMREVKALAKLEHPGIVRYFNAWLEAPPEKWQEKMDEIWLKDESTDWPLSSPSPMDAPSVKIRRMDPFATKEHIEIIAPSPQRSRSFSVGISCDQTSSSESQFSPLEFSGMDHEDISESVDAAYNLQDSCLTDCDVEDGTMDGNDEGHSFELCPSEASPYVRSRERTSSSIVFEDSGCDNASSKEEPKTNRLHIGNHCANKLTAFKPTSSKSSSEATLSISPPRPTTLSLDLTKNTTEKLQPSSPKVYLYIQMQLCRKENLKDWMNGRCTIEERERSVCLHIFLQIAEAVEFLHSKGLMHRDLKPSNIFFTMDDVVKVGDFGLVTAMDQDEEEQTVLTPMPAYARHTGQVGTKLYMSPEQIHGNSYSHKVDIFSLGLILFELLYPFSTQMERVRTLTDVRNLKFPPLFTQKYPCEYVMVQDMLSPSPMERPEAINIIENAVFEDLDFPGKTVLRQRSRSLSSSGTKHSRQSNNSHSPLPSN
Kind of data set: In-vitro PERK enzyme inhibition assay (LanthaScreen, KIN_PERK). Type of data set: biochemical. Further details: GST (N); purchased Invitrogen PV5106. To be noted: recombinant GST-PERK, GFP-eIF2 alpha substrate, 5 μM ATP, 60 minutes; for IC50: read-out: KIN_PERK pIC50 (converted). How it is done: Pharmacology i) In-Vitro PERK Enzyme Inhibition Assay (KIN_PERK pIC50)
The compounds of the invention were tested for inhibitory activity against PERK in an enzyme inhibition assay.
A biochemical PERK kinase assay using LanthaScreen® technology from Invitrogen using recombinant GST-PERK (Invitrogen PV5106), GFP-eIF2 alpha (full length) as substrate (Invitrogen PV4809) and the Terbium-labeled antibody (Tb-anti-peIF2alpha (pSer52); Invitrogen PV4816) as detection reagent, was performed essentially as described by the manufacturer, using following specific parameters: […]
On the technique in general: In TR-FRET formats the signal depends on donor and acceptor labels being close together.

The target in data set [2] is T1, PERK. Kind of data set: Cell-based PERK inhibition assay (TR-FRET, phosphorylation of GFP-eIF2 alpha in HEK293 cells, tunicamycin). To be noted: HEK293 (LanthaScreen eIF2α GripTite) cells, compounds 60 min, tunicamycin 2 microg/ml 120 min; for IC50: read-out: P-eIF2alpha_Lantha_cell pIC50 (converted). The method, then: A cell-based TR-FRET assay to measure inhibition of phosphorylation of GFP-eIF2 alpha expressed in HEK293 cells by compounds was set up as follows:
LanthaScreen® eIF2α GripTite cells (Invitrogen M4387) were plated and incubated for 16-20 h at 37° C. and 5% CO2, incubated with test compounds for 60 min, and then stimulated with tunicamycin (2 microg/ml) for 120 min. Culture medium was aspirated from the wells and, the cells were lysed in LanthaScreen® Cellular Assay Lysis Buffer (Invitrogen; PV5598), supplemented with protease inhibitor cocktail (Sigma P8340, 1/1000 dilution) and phosphatase inhibitor cocktail (Sigma P0044, 1/1000 dilution), including 2 nM terbium-labeled eIF2a pSer52 antibody (Invitrogen; PV4816).

As to `COc1cc2ncnc(Nc3ccc4c(c3)CCN4C(=O)Cc3cccs3)c2cc1OC` [Compound 20], the melting point amounted to 219 °C. In addition, in data set [1], the IC50 is 31.6 nM. In data set [2], the IC50 was 1260 nM.
As for `COc1cc2ncnc(Nc3ccc4c(c3F)CCN4C(=O)Cc3c(C)[nH]c4ccccc34)c2cc1OC` [Compound 39, 1-[5-[(6,7-dimethoxyquinazolin-4-yl)amino]-4-fluoro-indolin-1-yl]-2-(2-methyl-1H-indol-3-yl)ethanone], the melting point was found to be 174 °C. In addition, the “KIN_PERK pIC50” value in data set [1] is reported as 9.0. Moreover, in data set [2], the “P-eIF2alpha_Lantha_cell pIC50” value stood at 7.9.
In turn, `COc1cc2ncnc(Nc3ccc4c(c3)CCN4C(=O)Cn3ccc4ccccc43)c2cc1OC` [Compound 15] displayed a melting point of 176 °C. Moreover, the “KIN_PERK pIC50” value in data set [1] came out at 8.2. The IC50 in data set [2] is roughly 302 nM.
In turn, `COc1cc2ncnc(Nc3ccc4c(c3)CCN4C(=O)Cc3c(C)[nH]c4ccccc34)c2cc1OCCCN1CCOCC1` [Compound 8] registered a melting point of 216 °C. Also, the IC50 in data set [2] was 158 nM.
The compound `COc1cc2ncnc(Nc3ccc4c(c3)CCN4C(=O)Cn3ccnc3)c2cc1OC` [Compound 53] had a melting point of 174 °C. Also, in data set [1], the IC50 is greater than 10000 nM. Besides, the IC50 in data set [2] is greater than 10000 nM.
The compound `COc1cc2ncnc(Nc3ccc4c(c3)CCN4C(=O)Cc3c[nH]c4ccccc34)c2cc1OC` [Compound 40] gave a melting point of 180 °C. The IC50 in data set [1] is 12.6 nM. Further, the IC50 in data set [2] was 631 nM.
For `COc1cc2ncnc(Nc3ccc4c(c3)CCN4C(=O)Cc3c(Br)cnn3C)c2cc1OC` [Compound 11, 2-(4-bromo-2-methyl-pyrazol-3-yl)-1-[5-[(6,7-dimethoxyquinazolin-4-yl)amino]indolin-1-yl]ethanone], the melting point is 170 °C. Besides, the IC50 in data set [1] was 7.94 nM. The IC50 in data set [2] is 251 nM.
`COc1cc2ncnc(Nc3ccc4c(c3)CCN4C(=O)Cc3nn(C)c4ccccc34)c2cc1OC` [Compound 17] had a melting point of 158 °C. Moreover, the IC50 in data set [1] was 20 nM. Further, in data set [2], the IC50 is 794 nM.
`COc1cc2ncnc(Nc3ccc4c(c3)CCN4C(=O)Cc3cc(F)ccc3F)c2cc1OC` [Compound 42] registered a melting point greater than 260 °C. In addition, the IC50 in data set [1] was 6.31 nM. The IC50 in data set [2] was 631 nM.
For `COc1cc2ncnc(Nc3ccc4c(c3)CCN4C(=O)Cc3c(C)n(C)c4ccccc34)c2cc1OC` [Compound 5], in that order: 168 °C, 1.26 nM and 63.1 nM.
Compound `COc1cc2ncnc(Nc3ccc4c(c3)CCN4C(=O)Cc3cccc(C)n3)c2cc1OC` [Compound 41] registered a melting point of 248 °C. The IC50 in data set [2] is 794 nM.
Turning to `COc1cc2ncnc(Nc3ccc4c(c3F)CCN4C(=O)Cc3cc(F)ccc3F)c2cc1OC` [Compound 3], the melting point is 210 °C. Also, the IC50 in data set [1] was 0.398 nM. For the same compound, in data set [2], the IC50 was 50.1 nM.
`COc1cc2ncnc(Nc3ccc4c(c3)CCN4C(=O)Cc3coc4ccccc34)c2cc1OC` [Compound 30] displayed a melting point of 165 °C. Besides, the “KIN_PERK pIC50” value in data set [1] was 8.0. In data set [2], the IC50 was greater than 30200 nM.
As for `COc1cc2ncnc(Nc3ccc4c(c3)CCN4C(=O)Cc3ccn(C)n3)c2cc1OC` [Compound 28], the melting point amounted to 199 °C. Further, the “KIN_PERK pIC50” value in data set [1] was found to be 6.6. In addition, the “P-eIF2alpha_Lantha_cell pIC50” value in data set [2] was determined as 5.1.
The compound `COc1cc2ncnc(Nc3ccc4c(c3)CCN4C(=O)Cc3csc4ccccc34)c2cc1OC` [Compound 16] came in with a melting point of 161 °C. The IC50 in data set [1] was 5.01 nM. For the same compound, in data set [2], the IC50 is 501 nM.

By melting point is commonly meant the temperature, or range, at which the solid turns liquid.
